Results taken from patent US6777440B2, “HIV integrase inhibitors” (Bristol-Myers Squibb Company, priority 2001, dated 2004).

Assays:
[1] = test system: single cycle, recombinant HIV virus expressing Renella luciferase; test: Inhibition of HIV replication (single cycle recombinant virus, luciferase readout); type: cell-based; settings: Human immunodeficiency virus 1, 120 h, read-out: % Inhibition @ 1.6 uM
Protocol: Cell culture assays were preformed using a single cycle, recombinant HIV virus expressing Renella luciferase. Anti-viral activity was evaluated by measuring the production of luciferase in the infected cells 5 days post-infection. Susceptibility of the virus to compounds was determined by incubation in the presence of the serially-diluted compound. The 50% effective concentration (EC50) was calculated by using the exponential form of the median effect equation where (Fa)=1/[1+(ED50/drug conc.)^m]. Compounds of this invention tested in this assay have EC50's of approximately 0.02 to 50 μM.

[2] = Hydrolysis of prodrugs under physiological conditions (pH 7, 37° C., HPLC); type: physicochemical; settings: 25 mM phosphate buffer pH 7, 37° C.; for Compound 3: parent acid formed from 3-C; for Compound 3-C: remaining prodrug
Protocol: As shown in Scheme VII, compounds of Formula VII-A wherein R^1 and R^2 are as defined for Formula I, are hydrolyzed at pH 7 (37° C.) to yield the corresponding 2-hydroxy acrylic, VII-B, and are thus useful as prodrugs. [drawing 203]
In an experiment to measure the hydrolysis of compounds such as VII-A, compound 3-C was added to 25 mM phosphate buffer (pH 7) at a concentration of 0.03 mg/mL. The reaction was incubated at 37° C. for a period of 24 hours. Interval time points are analyzed by HPLC, identifying both the compound 3-C and compound 3, the parent acid.

[3] = biological target: T1, HIV-integrase (Human immunodeficiency virus type 1 group M subtype B, UniProt P04585); test: HIV-integrase inhibition activity (SPA bead strand-transfer assay); type: biochemical; settings: 50 μM compound; recombinant integrase
T1 construct: 0.26 ng of recombinant integrase was incubated with the beads
Protocol: For each reaction, 5 pmole of biotin labled substrate DNA was bound to 100 ug of Streptavidin coated PVT SPA beads (Amersham Pharmacia Biotech). 0.26 ng of recombinant integrase was incubated with the beads for 90 min at 37° C. Unbound enzyme was removed by washing the complex followed by addition of inhibitors and 0.1 fmol of P33 labeled target DNA. Reaction was stopped by adding EDTA to a final concentration of 10 mM. Samples were counted in TopCountNXT (Packard) and the CPM was used as a measure of integration. Reaction condition was as described in A. Engelman and R. Craigie, J. Virol. 69, 5908-5911 (1995). The sequences of substrate and target DNA were described in Nucleic Acid Research 22, 1121-1122 (1994). Compounds of this invention tested in this assay have IC50's of approximately 0.01 to 50 μM

Q: With CON(Cc1ccc(F)cc1)C(=O)/C=C(\O)C(=O)O [Compound 3, 3-[(4-Fluoro-benzyl)-methoxy-carbamoyl]-2-hydroxy-acrylic acid] as the compound, how does the inhibition at 1.6 µM [1] read?
A: 96%

Q: What about the melting point of the same compound?
A: 129 °C (dec.)

Q: And the “Compound 3” value ([2]; time 0 h)?
A: 0.001 mg/mL

Q: What about the “Compound 3” value ([2]; time 0.5 h) of the same compound?
A: 0.008 mg/mL

Q: And the “Compound 3” value ([2]; time 1 h)?
A: 0.012 mg/mL

Q: And the “Compound 3” value ([2]; time 1.5 h)?
A: 0.014 mg/mL

Q: What about the “Compound 3” value ([2]; time 2 h) of the same compound?
A: 0.016 mg/mL

Q: What about the “Compound 3” value ([2]; time 4 h) of the same compound?
A: 0.021 mg/mL

Q: And the “Compound 3” value ([2]; time 6 h)?
A: 0.022 mg/mL

Q: And the inhibition at 50 µM [3]?
A: 99.9%

Q: For CON(Cc1ccc(F)cc1)C(=O)/C=C1\OC(C)(C)OC1=O [Compound 3-C, 2-(2,2-Dimethyl-5-oxo-[1,3]dioxolan-4-ylidene)-N-(4-fluoro-benzyl)-N-methoxy-acetamide], which inhibition at 1.6 µM [1] is on record?
A: 96%

Q: And the “Compound 3-C” value ([2]; 3-C added at 0.03 mg/mL, time 0 h)?
A: 0.026 mg/mL

Q: What about the “Compound 3-C” value ([2]; time 0.5 h) of the same compound?
A: 0.022 mg/mL

Q: And the “Compound 3-C” value ([2]; time 1 h)?
A: 0.017 mg/mL

Q: What about the “Compound 3-C” value ([2]; time 1.5 h) of the same compound?
A: 0.013 mg/mL

Q: And the “Compound 3-C” value ([2]; time 2 h)?
A: 0.010 mg/mL

Q: And the “Compound 3-C” value ([2]; time 4 h)?
A: 0.003 mg/mL

Q: What about the “Compound 3-C” value ([2]; time 6 h) of the same compound?
A: 0.001 mg/mL

Q: Which inhibition at 1.6 µM [1] does the source give for CON(Cc1ccc(F)c(Cl)c1)C(=O)/C=C(\O)C(=O)O [Compound 5, 3-[(3-Chloro-4-fluoro-benzyl)-methoxy-carbamoyl]-2-hydroxy-acrylic acid] here?
A: 96%

Q: What about the inhibition at 50 µM [3] of the same compound?
A: 99.9%

Q: What does the source list for CON(Cc1ccccc1C)C(=O)/C=C(\O)C(=O)O [Compound 15, 2-Hydroxy-3-[methoxy-(2-methyl-benzyl)-carbamoyl]-acrylic acid]?
A: inhibition at 1.6 µM [1]: 33%; melting point: 85 to 87 °C (dec.); inhibition at 50 µM [3]: 99%
